In test [1] the target is T1, DmAgo2ΔQ (Drosophila melanogaster, UniProt Q9VUQ5).
T1 sequence (Q9VUQ5 400-1214 limits assumed): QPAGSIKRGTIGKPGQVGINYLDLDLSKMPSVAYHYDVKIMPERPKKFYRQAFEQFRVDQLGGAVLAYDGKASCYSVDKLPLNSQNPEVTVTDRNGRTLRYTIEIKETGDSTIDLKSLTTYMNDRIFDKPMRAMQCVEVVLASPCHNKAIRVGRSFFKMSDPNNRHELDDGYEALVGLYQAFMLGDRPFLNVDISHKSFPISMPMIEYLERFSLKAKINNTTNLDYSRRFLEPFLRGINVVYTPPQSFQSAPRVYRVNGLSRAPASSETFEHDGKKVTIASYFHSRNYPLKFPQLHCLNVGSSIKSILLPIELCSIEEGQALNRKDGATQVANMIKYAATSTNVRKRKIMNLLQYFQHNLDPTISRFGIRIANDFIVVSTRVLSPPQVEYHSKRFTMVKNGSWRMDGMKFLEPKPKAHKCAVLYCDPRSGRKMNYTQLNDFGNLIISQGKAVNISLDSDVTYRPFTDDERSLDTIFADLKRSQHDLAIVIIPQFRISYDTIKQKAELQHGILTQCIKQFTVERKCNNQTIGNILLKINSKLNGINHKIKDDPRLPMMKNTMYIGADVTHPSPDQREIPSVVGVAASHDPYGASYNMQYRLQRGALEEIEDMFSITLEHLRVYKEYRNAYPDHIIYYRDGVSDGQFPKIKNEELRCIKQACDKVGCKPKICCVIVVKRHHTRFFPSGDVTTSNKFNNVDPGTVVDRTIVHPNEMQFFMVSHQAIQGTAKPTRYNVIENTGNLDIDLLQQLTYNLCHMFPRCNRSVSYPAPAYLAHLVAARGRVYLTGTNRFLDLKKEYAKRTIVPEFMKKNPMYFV
Kind of test: filter binding, competition with […]-bantam miRNA. The conditions noted are these: PBS, 5 mM MgCl2, room temperature; 5'-end miRNA site; high concentrations.

Test [2] has as its target T2, PurR-C (Escherichia coli, UniProt P0ACP7).
T2 sequence (P0ACP7 60-341 limits assumed): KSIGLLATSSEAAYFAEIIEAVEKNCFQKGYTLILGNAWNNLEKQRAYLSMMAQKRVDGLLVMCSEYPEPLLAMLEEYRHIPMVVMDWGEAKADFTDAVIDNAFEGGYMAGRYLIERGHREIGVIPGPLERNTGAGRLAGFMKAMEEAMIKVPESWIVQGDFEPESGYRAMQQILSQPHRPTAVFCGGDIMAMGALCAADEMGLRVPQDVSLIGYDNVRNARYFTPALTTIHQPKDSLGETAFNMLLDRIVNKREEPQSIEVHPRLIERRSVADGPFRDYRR
Kind of test: Sepharose resin pull-down, competition with free nucleotide. The format is binding. The conditions noted are these: 500 uM nucleotide, PBS, 5 mM MgCl2, 4 C; data not shown.

Test [3] addresses T1, DmAgo2ΔQ. The test can be described thus: resin pull-down, GTP-Sepharose. Type of test: binding. The conditions noted are these: ligand immobilised on Sepharose; competed by miRNA; PBS, MgCl2, 4 C.
In test [4] the target is T3, DmAgo2-MID (Drosophila melanogaster, UniProt Q9VUQ5).
T3 sequence (Q9VUQ5 740-884 limits assumed): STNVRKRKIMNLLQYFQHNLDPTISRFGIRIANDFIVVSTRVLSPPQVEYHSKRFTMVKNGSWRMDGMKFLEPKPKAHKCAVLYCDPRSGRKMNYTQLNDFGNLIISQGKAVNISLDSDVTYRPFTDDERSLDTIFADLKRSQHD
Kind of test: m7GTP-Sepharose pull-down, competition with free nucleotide. Type of test: binding. The conditions noted are these: 500 uM GTP, PBS, 5 mM MgCl2, 4 C; competitive.

Test [5] has as its target T3, DmAgo2-MID. The test can be described thus: resin pull-down, m7GTP-Sepharose. Type of test: binding. The note with it: ligand immobilised on Sepharose; PBS, 5 mM MgCl2, 4 C.
The target of the next test is DmAgo1-MID (Drosophila melanogaster, UniProt A1Z9J5). The test can be described thus: resin pull-down, m7GTP-Sepharose. The format is binding. The note with it: ligand immobilised on Sepharose; PBS, 5 mM MgCl2, 4 C.
For test [6], the target named is T2, PurR-C. Kind of test: resin pull-down, m7GTP-Sepharose. Type of test: binding. The note with it: ligand immobilised on Sepharose; PBS, 5 mM MgCl2, 4 C.
The target in the next test is CeAlg1-MID (Caenorhabditis elegans, UniProt G5EGR6). Kind of test: resin pull-down, m7GTP-Sepharose. The format is binding. The note with it: ligand immobilised on Sepharose; PBS, 5 mM MgCl2, 4 C.
The target of the next test is T4, DmeIF4E (Drosophila melanogaster, UniProt P48598).
T4 sequence (P48598 1-259): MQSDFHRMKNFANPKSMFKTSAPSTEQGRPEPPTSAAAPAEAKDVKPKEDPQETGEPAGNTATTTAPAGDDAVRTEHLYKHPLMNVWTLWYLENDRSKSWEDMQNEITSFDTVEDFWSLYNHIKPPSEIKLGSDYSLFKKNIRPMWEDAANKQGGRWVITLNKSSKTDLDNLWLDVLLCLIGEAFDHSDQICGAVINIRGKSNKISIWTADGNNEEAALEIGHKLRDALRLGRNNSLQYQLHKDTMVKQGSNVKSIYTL
The test can be described thus: resin pull-down, m7GTP-Sepharose. The conditions noted are these: ligand immobilised on Sepharose; PBS, 5 mM MgCl2, 4 C. Type of test: binding.

The next test deals with T5, CeRde1 MID domain (Caenorhabditis elegans, UniProt G5EEH0).
T5 sequence (G5EEH0 470-618 limits assumed): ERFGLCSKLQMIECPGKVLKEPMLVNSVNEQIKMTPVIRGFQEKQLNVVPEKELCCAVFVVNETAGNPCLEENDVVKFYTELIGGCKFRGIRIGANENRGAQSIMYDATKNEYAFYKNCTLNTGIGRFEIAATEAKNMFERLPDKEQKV
The test can be described thus: resin pull-down, m7GTP-Sepharose. The conditions noted are these: ligand immobilised on Sepharose; PBS, 5 mM MgCl2, 4 C. Type of test: binding.

Sequence of DmAgo1-MID (A1Z9J5 538-665): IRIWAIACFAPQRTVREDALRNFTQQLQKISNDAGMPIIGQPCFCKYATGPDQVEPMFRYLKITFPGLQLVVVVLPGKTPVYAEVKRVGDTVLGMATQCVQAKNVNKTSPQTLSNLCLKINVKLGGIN
Sequence of CeAlg1-MID (G5EGR6 540-686 limits assumed): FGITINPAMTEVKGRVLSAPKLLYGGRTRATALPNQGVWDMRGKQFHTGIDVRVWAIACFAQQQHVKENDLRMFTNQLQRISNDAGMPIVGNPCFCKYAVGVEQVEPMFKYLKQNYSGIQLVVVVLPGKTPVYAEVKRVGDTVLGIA

On to `Nc1nc2c(ncn2[C@@H]2O[C@H](COP(=O)(O)O)[C@@H](O)[C@H]2O)c(=O)[nH]1` [GMP], for which, at DmAgo2ΔQ [1], the “filter binding, competition with 32P-bantam miRNA” value is “allosteric behavior was not observed for DmAgo2ΔQ, though GMP could compete at high concentrations”.

On to `Nc1nc2c(ncn2[C@@H]2O[C@H](COP(=O)(O)OP(=O)(O)OP(=O)(O)O)[C@@H](O)[C@H]2O)c(=O)[nH]1` [GTP], for which the “Sepharose resin pull-down, competition with free nucleotide” value at PurR-C [2] is “PurR binding to each resin was easily competed by both GTP and m^7GpppG”. The “resin pull-down, GTP-Sepharose” value at DmAgo2ΔQ [3] was “DmAgo2ΔQ binds poorly to m^7GTP, and better to GTP- and GMP-Sepharose”. Also, on DmAgo2-MID [4], the “m7GTP-Sepharose pull-down, competition with free nucleotide” value was “DmAgo2-MID binding was also readily competed by GTP”.

In the case of `C[n+]1cn([C@@H]2O[C@H](COP(=O)(O)OP(=O)(O)OP(=O)(O)O)[C@@H](O)[C@H]2O)c2nc(N)[nH]c(=O)c21` [m^7GTP], the “resin pull-down, m7GTP-Sepharose” value was “All of the MID domains [...] were able to bind to both resins” on DmAgo2-MID [5]; “miRNA-related Argonautes (DmAgo1, CeAlg1) consistently bound more effectively to m^7GTP-Sepharose” on DmAgo1-MID; “as well as the ligand-binding domain of PurR, were able to bind to both resins” on PurR-C [6]; “miRNA-related Argonautes (DmAgo1, CeAlg1) consistently bound more effectively to m^7GTP-Sepharose” on CeAlg1-MID; “the binding of DmeIF4E to m^7GTP-Sepharose was highly efficient” on DmeIF4E; “All of the MID domains [...] were able to bind to both resins” at CeRde1 MID domain.

`C[n+]1cn([C@@H]2O[C@H](COP(=O)(O)OP(=O)(O)OP(=O)(O)OC[C@H]3O[C@@H](n4cnc5c(=O)[nH]c(N)nc54)[C@H](O)[C@@H]3O)[C@@H](O)[C@H]2O)c2nc(N)[nH]c(=O)c21` [m^7GpppG]: the “Sepharose resin pull-down, competition with free nucleotide” value at PurR-C [2] was “PurR binding to each resin was easily competed by both GTP and m^7GpppG”.

The record behind these values is publication PMC2834277 (Nature structural & molecular biology, 2010).
